Reference: patent US11504425B2, “Amphiphilic oligodeoxynucleotide conjugates as adjuvant enhancers” (WAYNE STATE UNIVERSITY, priority 2019, dated 2022)

Columns and labels:
[1] = target: T1, mouse TLR7 (mTLR7) (Mus musculus, UniProt P58681); test: HEK mTLR7 reporter cells NF-κB/SEAP; type: cell-based; details: ligands at indicated concentrations + 1 μM ODN, 24 h
T1 construct: host or cells: HEK-Blue-mTLR7 (HEK293)
T1 sequence (P58681 27-1050): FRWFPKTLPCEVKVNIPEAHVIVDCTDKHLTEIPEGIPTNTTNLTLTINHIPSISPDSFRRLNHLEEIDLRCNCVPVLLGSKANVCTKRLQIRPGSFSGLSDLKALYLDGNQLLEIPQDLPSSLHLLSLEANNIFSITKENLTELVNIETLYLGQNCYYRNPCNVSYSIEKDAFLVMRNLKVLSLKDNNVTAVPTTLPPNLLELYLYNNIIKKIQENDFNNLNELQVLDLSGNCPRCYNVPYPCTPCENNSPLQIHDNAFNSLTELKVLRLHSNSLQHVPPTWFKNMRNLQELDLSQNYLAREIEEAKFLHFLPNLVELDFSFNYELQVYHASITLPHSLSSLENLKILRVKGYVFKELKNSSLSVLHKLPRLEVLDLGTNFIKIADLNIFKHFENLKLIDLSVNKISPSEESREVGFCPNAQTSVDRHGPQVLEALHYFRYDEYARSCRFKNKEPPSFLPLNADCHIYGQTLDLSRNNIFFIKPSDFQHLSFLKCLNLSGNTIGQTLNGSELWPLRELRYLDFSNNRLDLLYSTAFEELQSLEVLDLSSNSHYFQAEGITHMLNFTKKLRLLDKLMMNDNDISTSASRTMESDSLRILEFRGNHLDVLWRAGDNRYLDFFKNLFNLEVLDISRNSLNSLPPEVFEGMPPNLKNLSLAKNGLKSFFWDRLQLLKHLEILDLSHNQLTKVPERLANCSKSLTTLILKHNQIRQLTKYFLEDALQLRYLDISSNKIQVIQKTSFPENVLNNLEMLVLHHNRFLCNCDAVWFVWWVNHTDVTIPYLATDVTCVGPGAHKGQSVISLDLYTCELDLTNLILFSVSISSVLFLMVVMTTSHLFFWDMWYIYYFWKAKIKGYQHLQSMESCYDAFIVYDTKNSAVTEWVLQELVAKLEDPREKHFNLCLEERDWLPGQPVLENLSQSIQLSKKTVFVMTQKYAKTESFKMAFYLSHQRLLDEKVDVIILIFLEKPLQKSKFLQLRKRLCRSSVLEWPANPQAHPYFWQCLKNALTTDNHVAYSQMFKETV
Description: (§1) HEK-Blue™-mTLR7, mTLR8, hTLR7, hTLR8, and RAW-Blue™ cells were purchased from InvivoGen and were used to evaluate bioactivities of lipo ODNs and TLR 7/8 ligands in vitro. All these cell lines were cultured with DMEM supplemented with 10% FBS, 1% P/S and 100 μg/mL Normocin at 37° C. with 5% CO2. […] After incubating for 24 h, SEAP levels were quantified by developing supernatants with QuantiBlue™ substrate for 1 h and reading absorption at 620 nm, following manufacturer's instructions.
Raw Blue cells which respond to both murine TLR-7 and TLR-8 are also included to assess the overall modulatory effect. half-maximal effective concentration (EC50) and potency of several classic TLR7/8 ligands were evaluated in murine TLR7 and TLR8 reporter cells.

[2] = target: T2, human TLR7 (hTLR7) (Homo sapiens, UniProt Q9NYK1); test: HEK hTLR7 reporter cells NF-κB/SEAP; type: cell-based; details: IMQ at indicated concentrations + 1 μM ODN, 24 h
T2 construct: host or cells: HEK-Blue-hTLR7 (HEK293)
T2 sequence (Q9NYK1 27-1049): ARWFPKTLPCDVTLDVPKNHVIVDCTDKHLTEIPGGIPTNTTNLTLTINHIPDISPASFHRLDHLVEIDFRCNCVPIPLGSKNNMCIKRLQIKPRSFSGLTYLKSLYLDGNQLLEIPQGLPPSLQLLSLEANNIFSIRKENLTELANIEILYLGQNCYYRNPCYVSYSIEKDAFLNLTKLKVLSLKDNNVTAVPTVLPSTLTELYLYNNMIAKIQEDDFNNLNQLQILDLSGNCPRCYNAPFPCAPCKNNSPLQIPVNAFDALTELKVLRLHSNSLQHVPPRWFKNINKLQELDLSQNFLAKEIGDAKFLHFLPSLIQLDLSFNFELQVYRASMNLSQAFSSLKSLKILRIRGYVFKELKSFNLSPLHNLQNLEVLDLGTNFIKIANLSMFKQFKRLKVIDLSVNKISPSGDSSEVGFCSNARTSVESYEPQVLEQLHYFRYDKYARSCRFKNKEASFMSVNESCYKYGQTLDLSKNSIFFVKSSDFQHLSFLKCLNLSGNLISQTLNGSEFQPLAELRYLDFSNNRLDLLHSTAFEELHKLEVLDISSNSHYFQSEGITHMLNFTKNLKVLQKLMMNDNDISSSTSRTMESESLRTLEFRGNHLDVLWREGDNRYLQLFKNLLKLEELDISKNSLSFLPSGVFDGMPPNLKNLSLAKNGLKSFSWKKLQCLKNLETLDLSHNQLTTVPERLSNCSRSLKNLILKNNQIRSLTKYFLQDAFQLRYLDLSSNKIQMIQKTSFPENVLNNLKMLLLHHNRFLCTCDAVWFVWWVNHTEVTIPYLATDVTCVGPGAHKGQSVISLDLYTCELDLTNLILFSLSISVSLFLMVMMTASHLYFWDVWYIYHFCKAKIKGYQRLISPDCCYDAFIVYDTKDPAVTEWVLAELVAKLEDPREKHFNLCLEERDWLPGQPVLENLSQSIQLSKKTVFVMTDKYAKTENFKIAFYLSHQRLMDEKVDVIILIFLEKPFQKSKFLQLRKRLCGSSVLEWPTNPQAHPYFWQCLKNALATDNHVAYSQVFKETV
Description: as §1
HEK293 cells transfected with human TLR7 or 8 were used. The cells were stimulated with IMQ in the presence of several inhibitory oligonucleotides reported in the literature. […] In contrast, all the unmodified ODNs maintained their inhibitory function, reducing the NF-κB secretion to basal levels (FIG. 8A). We then plotted the IMQ dose response curve in human TLR-7 transfected HEK293 cells.

5′-TTTTTTTTTTTTTTTTTTTT-3′ [T20]
mTLR7 activation by IMQ, CL075, R848 in the presence of the ODN [1]: suppressed the TLR-7 activation | IMQ dose response in hTLR7 cells in the presence of the ODN [2]: completely abrogated the immune activation by IMQ
